Assays:
Assay in all cases: FLIPR calcium assay, cells with promiscuous G protein transfected with bitter receptor cDNA
Type in all cases: cell-based
Conditions in all cases: responsive if cellular response of >10% over baseline, Fluo4-AM
[1] = molecular target: T1, T2R receptor SEQ ID NO: 5 (S5) (Homo sapiens, UniProt P59534)
T1 construct: expressed in transfected cells; host or cells: cells expressing a promiscuous G protein (e.g., G16g44)
T1 sequence (P59534 18-338): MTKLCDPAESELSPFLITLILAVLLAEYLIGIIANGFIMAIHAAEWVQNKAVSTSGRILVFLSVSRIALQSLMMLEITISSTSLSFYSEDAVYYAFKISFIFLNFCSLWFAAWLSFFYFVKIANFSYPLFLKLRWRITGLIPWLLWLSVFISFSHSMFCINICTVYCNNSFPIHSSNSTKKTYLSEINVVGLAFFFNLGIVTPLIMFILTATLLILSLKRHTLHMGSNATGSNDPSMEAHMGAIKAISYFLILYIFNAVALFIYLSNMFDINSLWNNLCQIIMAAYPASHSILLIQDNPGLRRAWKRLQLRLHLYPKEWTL
Method: (§1) Cells expressing a promiscuous G protein (e.g., G16g44) were transfected with vectors encoding 22 functional bitter receptor cDNAs, with one receptor per transfection. The cells were transfected directly in 384-well format high-density plates and incubated for 28 hours. Later, cells were loaded with the Ca-specific dye Fluo4-AM. After an incubation of 60 minutes, excess dye is washed off, and cells are stimulated with respective bitter agonists while simultaneously recording changes in intracellular fluorescence using a FLIPR instrument.
(§2) The above protocol was carried out using 94 different active pharmaceutical ingredients (APIs) that span a wide range of different APIs having a diversity of chemical structures. A particular T2R receptor was identified as being responsive to a particular API if it triggered a cellular response of >10% over baseline.

[2] = molecular target: T2, T2R receptor SEQ ID NO: 6 (S6) (Homo sapiens, UniProt P59540)
T2 construct: expressed in transfected cells; host or cells: cells expressing a promiscuous G protein (e.g., G16g44)
T2 sequence (P59540 1-309): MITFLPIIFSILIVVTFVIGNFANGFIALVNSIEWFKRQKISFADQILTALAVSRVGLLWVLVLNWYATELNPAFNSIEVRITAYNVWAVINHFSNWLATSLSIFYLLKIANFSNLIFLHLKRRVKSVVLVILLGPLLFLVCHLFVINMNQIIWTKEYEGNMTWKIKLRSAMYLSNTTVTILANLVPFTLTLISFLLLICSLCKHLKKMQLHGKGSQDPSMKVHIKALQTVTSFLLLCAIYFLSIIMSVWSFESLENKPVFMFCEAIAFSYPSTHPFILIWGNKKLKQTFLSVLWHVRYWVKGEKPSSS
Method: as §1, §2

[3] = molecular target: T3, T2R receptor SEQ ID NO: 1 (S1) (Homo sapiens, UniProt Q9NYW7)
T3 construct: expressed in transfected cells; host or cells: cells expressing a promiscuous G protein (e.g., G16g44)
T3 sequence (Q9NYW7 1-299): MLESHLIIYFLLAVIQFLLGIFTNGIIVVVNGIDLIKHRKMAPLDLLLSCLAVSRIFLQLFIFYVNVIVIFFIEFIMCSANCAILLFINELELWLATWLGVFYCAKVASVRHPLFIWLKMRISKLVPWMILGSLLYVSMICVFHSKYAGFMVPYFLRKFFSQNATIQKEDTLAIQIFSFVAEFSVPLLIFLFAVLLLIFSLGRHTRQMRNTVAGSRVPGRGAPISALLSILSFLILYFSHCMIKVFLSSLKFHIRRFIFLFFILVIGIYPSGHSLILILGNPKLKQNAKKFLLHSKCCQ
Method: as §1, §2

[4] = molecular target: T4, T2R receptor SEQ ID NO: 4 (S4) (Homo sapiens, UniProt Q9NYV8)
T4 construct: expressed in transfected cells; host or cells: cells expressing a promiscuous G protein (e.g., G16g44)
T4 sequence (Q9NYV8 1-317): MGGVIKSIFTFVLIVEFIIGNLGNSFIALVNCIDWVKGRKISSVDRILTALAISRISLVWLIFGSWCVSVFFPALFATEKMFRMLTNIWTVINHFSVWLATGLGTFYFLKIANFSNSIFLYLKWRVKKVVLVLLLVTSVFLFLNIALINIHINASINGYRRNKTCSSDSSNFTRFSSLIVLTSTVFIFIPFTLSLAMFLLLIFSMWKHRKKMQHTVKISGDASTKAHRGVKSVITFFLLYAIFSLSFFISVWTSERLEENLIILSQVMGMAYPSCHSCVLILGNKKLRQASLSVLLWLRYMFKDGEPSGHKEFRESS
Method: as §1, §2

[5] = molecular target: T5, T2R receptor SEQ ID NO: 3 (S3) (Homo sapiens, UniProt Q9NYW0, T156M)
T5 construct: expressed in transfected cells; host or cells: cells expressing a promiscuous G protein (e.g., G16g44)
T5 sequence (Q9NYW0 1-307 T156M): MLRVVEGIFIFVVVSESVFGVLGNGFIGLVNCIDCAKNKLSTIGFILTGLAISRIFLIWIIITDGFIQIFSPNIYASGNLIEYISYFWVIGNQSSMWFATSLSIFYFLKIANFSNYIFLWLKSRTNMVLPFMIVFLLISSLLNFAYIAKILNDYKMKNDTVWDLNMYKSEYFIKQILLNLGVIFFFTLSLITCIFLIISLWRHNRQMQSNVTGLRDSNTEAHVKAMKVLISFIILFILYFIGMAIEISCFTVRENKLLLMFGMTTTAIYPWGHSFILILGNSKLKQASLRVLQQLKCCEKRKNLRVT
Method: as §1, §2

Row | SMILES | S5 positive response of T2R receptor to API [1] | S6 positive response of T2R receptor to API [2] | S1 positive response of T2R receptor to API [3] | S4 positive response of T2R receptor to API [4] | S3 positive response of T2R receptor to API [5]
1 | Cc1cc(N)c2ccccc2[n+]1CCCCCCCCCC[n+]1c(C)cc(N)c2ccccc21 [Dequalinium] | + (a “+” to indicate whether a particular T2R receptor showed a positive response to a particular API) | + (a “+” to indicate whether a particular T2R receptor showed a positive response to a particular API) |  |  | 
2 | COCCCC/C(=N\OCCN)c1ccc(C(F)(F)F)cc1 [Fluvoxamine] |  |  | + (a “+” to indicate whether a particular T2R receptor showed a positive response to a particular API) |  | 
3 | CC(C)(C(=O)O)c1ccc(C(O)CCCN2CCC(C(O)(c3ccccc3)c3ccccc3)CC2)cc1 (stereo not drawn) [Fexofenadine] | + (a “+” to indicate whether a particular T2R receptor showed a positive response to a particular API) | + (a “+” to indicate whether a particular T2R receptor showed a positive response to a particular API) | + (a “+” to indicate whether a particular T2R receptor showed a positive response to a particular API) |  | 
4 | COc1cc2c(c(OC)c1OC)-c1ccc(OC)c(=O)cc1[C@@H](NC(C)=O)CC2 [Colchicine] | + (a “+” to indicate whether a particular T2R receptor showed a positive response to a particular API) | + (a “+” to indicate whether a particular T2R receptor showed a positive response to a particular API) |  |  | 
5 | CC(=O)Nc1ccc(O)cc1 [Acetaminophen] | + (a “+” to indicate whether a particular T2R receptor showed a positive response to a particular API) |  |  |  | 
6 | CCN(CC)CC#CCOC(=O)C(O)(c1ccccc1)C1CCCCC1 (stereo not drawn) [Oxybutynin Chloride] | + (a “+” to indicate whether a particular T2R receptor showed a positive response to a particular API) | + (a “+” to indicate whether a particular T2R receptor showed a positive response to a particular API) |  | + (a “+” to indicate whether a particular T2R receptor showed a positive response to a particular API) | + (a “+” to indicate whether a particular T2R receptor showed a positive response to a particular API)
7 | CC(=O)Oc1ccc(C(c2ccc(OC(C)=O)cc2)c2ccccn2)cc1 [Bisacodyl] |  | + (a “+” to indicate whether a particular T2R receptor showed a positive response to a particular API) | + (a “+” to indicate whether a particular T2R receptor showed a positive response to a particular API) | + (a “+” to indicate whether a particular T2R receptor showed a positive response to a particular API) | 
8 | CC12CCC(CC1)C(C)(C)O2 [Eucalyptol] |  |  | + (a “+” to indicate whether a particular T2R receptor showed a positive response to a particular API) | + (a “+” to indicate whether a particular T2R receptor showed a positive response to a particular API) | 
9 | CC(CCc1ccccc1)NCC(O)c1ccc(O)c(C(N)=O)c1 (stereo not drawn) [Labetalol] | + (a “+” to indicate whether a particular T2R receptor showed a positive response to a particular API) | + (a “+” to indicate whether a particular T2R receptor showed a positive response to a particular API) |  |  | + (a “+” to indicate whether a particular T2R receptor showed a positive response to a particular API)
10 | CCN(CC)CCNC(=O)c1ccc(N)cc1 [Procaineamide] | + (a “+” to indicate whether a particular T2R receptor showed a positive response to a particular API) | + (a “+” to indicate whether a particular T2R receptor showed a positive response to a particular API) |  |  | + (a “+” to indicate whether a particular T2R receptor showed a positive response to a particular API)
11 | COC(=O)[C@H](c1ccccc1Cl)N1CCc2sccc2C1 [Clopidogrel] |  |  | + (a “+” to indicate whether a particular T2R receptor showed a positive response to a particular API) |  | + (a “+” to indicate whether a particular T2R receptor showed a positive response to a particular API)
12 | C=C[C@H]1C[N@@]2CC[C@H]1C[C@H]2[C@H](O)c1ccnc2ccc(OC)cc12 [Quinine] | + (a “+” to indicate whether a particular T2R receptor showed a positive response to a particular API) | + (a “+” to indicate whether a particular T2R receptor showed a positive response to a particular API) |  | + (a “+” to indicate whether a particular T2R receptor showed a positive response to a particular API) | + (a “+” to indicate whether a particular T2R receptor showed a positive response to a particular API)
13 | COC(=O)[C@@H]1[C@H]2C[C@H]3c4[nH]c5ccccc5c4CCN3C[C@@H]2CC[C@@H]1O [Yohimbine] |  | + (a “+” to indicate whether a particular T2R receptor showed a positive response to a particular API) | + (a “+” to indicate whether a particular T2R receptor showed a positive response to a particular API) |  | + (a “+” to indicate whether a particular T2R receptor showed a positive response to a particular API)
14 | Cc1cc(NS(=O)(=O)c2ccc(N)cc2)no1 [Sulfamethoxazole] |  |  | + (a “+” to indicate whether a particular T2R receptor showed a positive response to a particular API) |  | 
15 | CCCCc1ncc(/C=C(\Cc2cccs2)C(=O)O)n1Cc1ccc(C(=O)O)cc1 [Eprosartan] |  |  | + (a “+” to indicate whether a particular T2R receptor showed a positive response to a particular API) |  | 
16 | CC[N+](C)(C)c1cccc(O)c1 [Edrophonium] | + (a “+” to indicate whether a particular T2R receptor showed a positive response to a particular API) | + (a “+” to indicate whether a particular T2R receptor showed a positive response to a particular API) | + (a “+” to indicate whether a particular T2R receptor showed a positive response to a particular API) |  | 
17 | CC1(C)S[C@@H]2[C@H](NC(=O)[C@H](N)c3ccc(O)cc3)C(=O)N2[C@H]1C(=O)O [Amoxicillin] |  |  | + (a “+” to indicate whether a particular T2R receptor showed a positive response to a particular API) |  | 
